Legend:
Assay type in all cases: biochemical
B-Raf = molecular target: T1, B-Raf (Homo sapiens, UniProt P15056); experiment: AlphaScreen kinase assay, B-Raf; details: read-out: IC50, activity toward kinase B-Raf
T1 construct: purchased Upstate Biotechnology

B-Raf V600E = molecular target: T2, B-Raf V600E (Homo sapiens, UniProt P15056, V600E); experiment: AlphaScreen kinase assay, B-Raf V600E; details: read-out: IC50, activity toward kinase B-Raf V600E
T2 construct: P4254. pFastBacBD-CDC37 BRAF D437-K722-X, V600E; His6 with pFastBac HT leader (TEV site) (N); made in house; host or cells: Sf9 (baculovirus; chaperone CDC37 co-expressed)

Flt1 = molecular target: T3, Flt1 (Homo sapiens, UniProt P17948); experiment: AlphaScreen kinase assay, Flt1; details: read-out: IC50, activity toward kinase Flt1
T3 construct: P1826.pETN6 BI-PTP FLT1 M799-D1165-X WT; His6 (N); made in house; host or cells: E. coli (PTP1B co-expressed)
T3 sequence (P17948 with tags, fused parts or gaps): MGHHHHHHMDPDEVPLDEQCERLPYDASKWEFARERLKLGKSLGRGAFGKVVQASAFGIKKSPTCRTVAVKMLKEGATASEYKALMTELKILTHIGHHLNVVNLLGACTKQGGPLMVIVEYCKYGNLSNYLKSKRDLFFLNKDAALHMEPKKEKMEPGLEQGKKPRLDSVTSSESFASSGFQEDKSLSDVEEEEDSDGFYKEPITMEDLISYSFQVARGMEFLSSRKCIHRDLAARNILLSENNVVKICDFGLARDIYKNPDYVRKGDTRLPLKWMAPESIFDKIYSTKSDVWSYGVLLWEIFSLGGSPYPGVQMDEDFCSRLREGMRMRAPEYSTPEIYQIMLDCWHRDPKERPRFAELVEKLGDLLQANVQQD

Fms = molecular target: T4, Fms (Homo sapiens, UniProt P07333); experiment: AlphaScreen kinase assay, Fms; details: read-out: IC50, activity toward kinase Fms
T4 construct: purchased Upstate Biotechnology

Jnk1 = molecular target: T5, Jnk1 (Homo sapiens, UniProt P45983); experiment: AlphaScreen kinase assay, Jnk1; details: read-out: IC50, activity toward kinase Jnk1
T5 construct: purchased Upstate Biotechnology

Jnk2 = molecular target: T6, Jnk2 (Homo sapiens, UniProt P45984); experiment: AlphaScreen kinase assay, Jnk2; details: read-out: IC50, activity toward kinase Jnk2
T6 construct: purchased Roche Protein Expression Group (Indianapolis, IN)
Procedure, shortened: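 Emission from acceptor beads reports phosphorylated biotin-peptide bridging antibody-coated acceptor and streptavidin donor beads; loss of signal reflects kinase inhibition. Eight-point, threefold dilution series prepared from 20 mM DMSO stocks.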

Jnk3 = molecular target: T7, Jnk3 (Homo sapiens, UniProt P53779); experiment: AlphaScreen kinase assay, Jnk3; details: read-out: IC50, activity toward kinase Jnk3
T7 construct: purchased Upstate Biotechnology

Kit = molecular target: T8, Kit (Homo sapiens, UniProt P10721); experiment: AlphaScreen kinase assay, Kit; details: read-out: IC50, activity toward kinase Kit
T8 construct: P1332.N6 BI PTP KIT M552-K948-X COD; His6 (N); made in house; host or cells: E. coli (PTP1B co-expressed)

Measured: IC50

T1 sequence (P15056 whole entry): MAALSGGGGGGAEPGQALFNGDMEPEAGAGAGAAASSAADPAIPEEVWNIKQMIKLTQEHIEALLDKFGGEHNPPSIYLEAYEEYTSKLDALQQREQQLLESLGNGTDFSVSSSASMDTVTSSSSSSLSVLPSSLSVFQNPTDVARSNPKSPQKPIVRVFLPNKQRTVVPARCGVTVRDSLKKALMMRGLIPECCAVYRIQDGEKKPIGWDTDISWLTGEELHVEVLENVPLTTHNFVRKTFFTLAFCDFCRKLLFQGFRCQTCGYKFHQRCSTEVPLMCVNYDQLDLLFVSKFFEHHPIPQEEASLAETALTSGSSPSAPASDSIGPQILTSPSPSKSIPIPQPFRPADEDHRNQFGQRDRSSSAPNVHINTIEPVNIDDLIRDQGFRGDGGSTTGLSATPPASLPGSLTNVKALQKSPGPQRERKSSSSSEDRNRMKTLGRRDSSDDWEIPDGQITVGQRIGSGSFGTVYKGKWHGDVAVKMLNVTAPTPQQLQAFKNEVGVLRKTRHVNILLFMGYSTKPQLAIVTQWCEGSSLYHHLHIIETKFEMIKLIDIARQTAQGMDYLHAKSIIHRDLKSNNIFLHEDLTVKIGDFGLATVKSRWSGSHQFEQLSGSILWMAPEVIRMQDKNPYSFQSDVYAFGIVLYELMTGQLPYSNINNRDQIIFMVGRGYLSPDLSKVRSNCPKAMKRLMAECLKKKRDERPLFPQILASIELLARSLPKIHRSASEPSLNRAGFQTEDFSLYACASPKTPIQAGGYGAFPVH
T6 sequence (P45984 whole entry): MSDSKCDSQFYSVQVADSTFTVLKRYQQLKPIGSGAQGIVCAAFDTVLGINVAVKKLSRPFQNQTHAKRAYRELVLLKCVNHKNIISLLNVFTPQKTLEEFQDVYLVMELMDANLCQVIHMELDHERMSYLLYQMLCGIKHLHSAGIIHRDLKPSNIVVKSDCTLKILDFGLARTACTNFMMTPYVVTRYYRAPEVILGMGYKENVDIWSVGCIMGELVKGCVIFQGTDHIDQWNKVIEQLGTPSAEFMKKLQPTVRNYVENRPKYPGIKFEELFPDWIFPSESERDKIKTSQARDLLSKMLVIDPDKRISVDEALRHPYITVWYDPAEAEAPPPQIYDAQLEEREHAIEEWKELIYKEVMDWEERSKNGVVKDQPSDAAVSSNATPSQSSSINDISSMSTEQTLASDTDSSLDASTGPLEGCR
T4 sequence (P07333 20-972): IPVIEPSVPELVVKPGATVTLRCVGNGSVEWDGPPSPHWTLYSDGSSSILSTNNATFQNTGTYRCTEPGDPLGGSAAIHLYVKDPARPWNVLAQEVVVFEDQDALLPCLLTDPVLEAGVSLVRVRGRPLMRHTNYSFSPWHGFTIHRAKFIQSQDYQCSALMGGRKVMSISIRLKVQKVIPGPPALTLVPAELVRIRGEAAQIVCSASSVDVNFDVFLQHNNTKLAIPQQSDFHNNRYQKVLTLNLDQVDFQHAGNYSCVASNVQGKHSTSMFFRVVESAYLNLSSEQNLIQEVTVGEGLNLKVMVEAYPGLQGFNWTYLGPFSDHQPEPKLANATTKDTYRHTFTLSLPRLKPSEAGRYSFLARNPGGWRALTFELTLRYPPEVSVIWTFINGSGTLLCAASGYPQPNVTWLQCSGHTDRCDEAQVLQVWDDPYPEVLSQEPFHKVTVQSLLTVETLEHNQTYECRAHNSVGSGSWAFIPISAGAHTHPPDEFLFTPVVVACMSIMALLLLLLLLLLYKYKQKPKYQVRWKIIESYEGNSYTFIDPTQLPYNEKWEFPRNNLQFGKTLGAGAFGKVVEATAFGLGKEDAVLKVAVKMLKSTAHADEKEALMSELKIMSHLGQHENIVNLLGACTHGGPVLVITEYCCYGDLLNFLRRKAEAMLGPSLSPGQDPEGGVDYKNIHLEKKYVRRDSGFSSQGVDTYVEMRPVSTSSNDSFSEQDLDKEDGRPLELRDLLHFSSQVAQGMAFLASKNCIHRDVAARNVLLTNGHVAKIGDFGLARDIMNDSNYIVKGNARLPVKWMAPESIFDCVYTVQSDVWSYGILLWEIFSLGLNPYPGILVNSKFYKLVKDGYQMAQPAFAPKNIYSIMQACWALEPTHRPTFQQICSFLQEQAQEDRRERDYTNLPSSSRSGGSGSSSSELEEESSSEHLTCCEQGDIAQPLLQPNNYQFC
T2 sequence (P15056 with tags, fused parts or gaps V600E): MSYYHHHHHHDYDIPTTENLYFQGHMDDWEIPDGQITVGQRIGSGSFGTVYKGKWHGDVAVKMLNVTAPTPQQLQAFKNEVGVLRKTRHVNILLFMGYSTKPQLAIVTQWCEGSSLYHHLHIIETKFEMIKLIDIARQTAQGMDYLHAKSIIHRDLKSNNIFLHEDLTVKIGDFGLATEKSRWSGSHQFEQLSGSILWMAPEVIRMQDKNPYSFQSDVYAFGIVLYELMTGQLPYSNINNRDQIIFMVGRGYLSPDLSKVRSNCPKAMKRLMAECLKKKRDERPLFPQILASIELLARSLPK
T7 sequence (P53779 whole entry): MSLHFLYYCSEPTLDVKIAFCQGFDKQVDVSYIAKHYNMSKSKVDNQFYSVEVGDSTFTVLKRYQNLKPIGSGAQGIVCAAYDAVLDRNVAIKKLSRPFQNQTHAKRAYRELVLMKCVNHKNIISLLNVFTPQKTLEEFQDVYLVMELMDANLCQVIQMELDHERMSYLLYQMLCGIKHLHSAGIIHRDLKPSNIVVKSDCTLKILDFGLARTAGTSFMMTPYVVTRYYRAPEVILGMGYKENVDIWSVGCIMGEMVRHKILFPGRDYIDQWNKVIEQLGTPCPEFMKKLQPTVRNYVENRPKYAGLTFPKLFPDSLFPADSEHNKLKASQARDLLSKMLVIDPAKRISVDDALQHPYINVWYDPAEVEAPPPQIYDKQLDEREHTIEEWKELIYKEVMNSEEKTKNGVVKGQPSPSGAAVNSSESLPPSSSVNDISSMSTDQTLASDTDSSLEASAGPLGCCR
T5 sequence (P45983 whole entry): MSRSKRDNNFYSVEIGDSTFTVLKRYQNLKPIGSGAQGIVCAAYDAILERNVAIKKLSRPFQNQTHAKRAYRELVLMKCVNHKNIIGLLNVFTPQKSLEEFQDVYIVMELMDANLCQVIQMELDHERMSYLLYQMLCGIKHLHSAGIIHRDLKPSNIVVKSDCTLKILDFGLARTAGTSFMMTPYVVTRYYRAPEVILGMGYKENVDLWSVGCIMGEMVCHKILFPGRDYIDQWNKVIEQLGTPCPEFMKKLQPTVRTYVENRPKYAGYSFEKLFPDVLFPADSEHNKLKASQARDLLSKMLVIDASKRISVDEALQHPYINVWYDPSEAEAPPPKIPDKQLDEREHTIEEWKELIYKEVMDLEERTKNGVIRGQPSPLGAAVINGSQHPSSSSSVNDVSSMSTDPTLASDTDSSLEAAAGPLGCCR
T8 sequence (P10721 with tags, fused parts or gaps): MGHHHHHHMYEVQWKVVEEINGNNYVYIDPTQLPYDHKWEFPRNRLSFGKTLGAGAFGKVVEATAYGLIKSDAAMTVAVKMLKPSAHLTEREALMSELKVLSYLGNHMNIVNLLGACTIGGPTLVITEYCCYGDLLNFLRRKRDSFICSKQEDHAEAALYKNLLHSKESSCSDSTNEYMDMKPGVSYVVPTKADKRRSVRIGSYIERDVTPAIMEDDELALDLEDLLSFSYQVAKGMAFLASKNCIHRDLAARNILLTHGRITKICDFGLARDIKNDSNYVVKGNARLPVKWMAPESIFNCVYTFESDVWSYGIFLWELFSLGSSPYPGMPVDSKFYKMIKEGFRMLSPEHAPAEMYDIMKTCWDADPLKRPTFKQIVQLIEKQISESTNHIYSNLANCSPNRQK

NC(=O)Nc1ccc(F)c(C(=O)c2c[nH]c3ncc(Br)cc23)c1 [Compound P-1570, [3-(5-Bromo-1H-pyrrolo[2,3-b]pyridine-3-carbonyl)-4-fluoro-phenyl]-urea]
not listed: Kit
≤ 10 µM: all other assays above

Cc1ccccc1NC(=O)Nc1cccc(C(=O)c2c[nH]c3ncccc23)c1 [Compound P-1720, 1-[3-(1H-Pyrrolo[2,3-b]pyridine-3-carbonyl)-phenyl]-3-o-tolyl-urea]
not listed: Flt1
≤ 10 µM: all other assays above

CCCN(CCC)C(=O)n1ccc2c(C(=O)c3c[nH]c4ncc(-c5cccnc5)cc34)cccc21 [Compound P-1722, 4-(5-Pyridin-3-yl-1H-pyrrolo[2,3-b]pyridine-3-carbonyl)-indole-1-carboxylic acid dipropylamide]
not listed: Flt1 | Kit
≤ 10 µM: all other assays above

O=C(Nc1cccc(C(=O)c2c[nH]c3ncc(-c4cccnc4)cc23)c1)Nc1ccc(F)c(F)c1 [Compound P-1724, 1-(3,4-Difluoro-phenyl)-3-[3-(5-pyridin-3-yl-1H-pyrrolo[2,3-b]pyridine-3-carbonyl)-phenyl]-urea]
not listed: Flt1 | Kit
≤ 10 µM: all other assays above

CCCCNC(=O)Nc1cccc(C(=O)c2c[nH]c3ncc(-c4cccnc4)cc23)c1C [Compound P-1742, 1-Butyl-3-[2-methyl-3-(5-pyridin-3-yl-1H-pyrrolo[2,3-b]pyridine-3-carbonyl)-phenyl]-urea]
not listed: Flt1 | Kit
≤ 10 µM: all other assays above

O=C(Nc1ccc(F)cc1)Nc1cccc(C(=O)c2c[nH]c3ncc(-c4cccnc4)cc23)c1 [Compound P-1748, 1-(4-Fluoro-phenyl)-3-[3-(5-pyridin-3-yl-1H-pyrrolo[2,3-b]pyridine-3-carbonyl)-phenyl]-urea]
not listed: Flt1 | Kit
≤ 10 µM: all other assays above

COc1cccc(NC(=O)Nc2cccc(C(=O)c3c[nH]c4ncc(-c5cccnc5)cc34)c2)c1 [Compound P-1749, 1-(3-Methoxy-phenyl)-3-[3-(5-pyridin-3-yl-1H-pyrrolo[2,3-b]pyridine-3-carbonyl)-phenyl]-urea]
not listed: Flt1 | Kit
≤ 10 µM: all other assays above

O=C(Nc1ccc(Cl)cc1)Nc1cccc(C(=O)c2c[nH]c3ncc(-c4cccnc4)cc23)c1 [Compound P-1750, 1-(4-Chloro-phenyl)-3-[3-(5-pyridin-3-yl-1H-pyrrolo[2,3-b]pyridine-3-carbonyl)-phenyl]-urea]
not listed: Flt1 | Kit
≤ 10 µM: all other assays above

Cc1ccc(NC(=O)Nc2cccc(C(=O)c3c[nH]c4ncc(-c5cccnc5)cc34)c2)cc1 [Compound P-1756, 1-[3-(5-Pyridin-3-yl-1H-pyrrolo[2,3-b]pyridine-3-carbonyl)-phenyl]-3-p-tolyl-urea]
not listed: Flt1 | Kit
≤ 10 µM: all other assays above

Cc1cccc(NC(=O)Nc2cccc(C(=O)c3c[nH]c4ncc(-c5cccnc5)cc34)c2)c1 [Compound P-1757, 1-[3-(5-Pyridin-3-yl-1H-pyrrolo[2,3-b]pyridine-3-carbonyl)-phenyl]-3-m-tolyl-urea]
not listed: Flt1 | Kit
≤ 10 µM: all other assays above

Cc1ccccc1NC(=O)Nc1cccc(C(=O)c2c[nH]c3ncc(-c4cccnc4)cc23)c1 [Compound P-1759, 1-[3-(5-Pyridin-3-yl-1H-pyrrolo[2,3-b]pyridine-3-carbonyl)-phenyl]-3-o-tolyl-urea]
not listed: Flt1 | Kit
≤ 10 µM: all other assays above

O=C(Nc1cccc(C(=O)c2c[nH]c3ncccc23)c1)Nc1ccon1 [Compound P-1764, 1-Isoxazol-3-yl-3-[3-(1H-pyrrolo[2,3-b]pyridine-3-carbonyl)-phenyl]-urea]
not listed: Flt1 | Kit
≤ 10 µM: all other assays above

Cc1cc(NC(=O)Nc2cccc(C(=O)c3c[nH]c4ncccc34)c2)on1 [Compound P-1765, 1-(3-Methyl-isoxazol-5-yl)-3-[3-(1H-pyrrolo[2,3-b]pyridine-3-carbonyl)-phenyl]-urea]
not listed: Flt1 | Kit
≤ 10 µM: all other assays above

Cc1noc(NC(=O)Nc2cccc(C(=O)c3c[nH]c4ncccc34)c2)c1C [Compound P-1767]
not listed: Flt1
≤ 10 µM: all other assays above

Cc1noc(NC(=O)Nc2cccc(C(=O)c3c[nH]c4ncc(Cl)cc34)c2)c1C [Compound P-1776, 1-[3-(5-Chloro-1H-pyrrolo[2,3-b]pyridine-3-carbonyl)-phenyl]-3-(3,4-dimethyl-isoxazol-5-yl)-urea]
not listed: Flt1
≤ 10 µM: all other assays above

CCCCNC(=O)Nc1cccc(C(=O)c2c[nH]c3ncc(-c4cccnc4)cc23)c1Cl [Compound P-1828, 1-Butyl-3-[2-chloro-3-(5-pyridin-3-yl-1H-pyrrolo[2,3-b]pyridine-3-carbonyl)-phenyl]-urea]
not listed: Flt1 | Kit
≤ 10 µM: all other assays above

CCCS(=O)(=O)Nc1ccc(F)c(C(=O)c2c[nH]c3ncc(-c4ccc(C(=O)N(C)C)c(C)c4)cc23)c1F [Compound P-2007]
not listed: Flt1 | Kit
≤ 10 µM: all other assays above

Reference: patent US8415469B2, “Compounds and methods for kinase modulation, and indications therefor” (Plexxikon Inc., priority 2005, dated 2013)
